Data published in patent US20250051375A1, “ANTI-HIV COMPOUNDS” (Gilead Sciences, Inc., priority 2023, published 2025).
In brackets after ≈: the same amount, converted by molar mass.

What was measured:
HIV-1 IIIB strain = test: MT-4 HIV Wild Type Virus Infection Assay (IIIB Virus); assay type: cell-based; details: Human immunodeficiency virus 1, IIIB, MT4, 120 h, MT-4 cells acutely infected with HIV-1 IIIB, 5 day incubation, Cell-titer glo
Outline: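 MT-4 cells at 2×10^6 cells/ml in RPMI/10% FBS were acutely infected with HIV-1 IIIB for 1 h at 37° C, diluted 25× and added to serially diluted compounds. After 5 days at 37° C, viability read by CellTiter-Glo luminescence; EC50 from dose-response curves.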

[1] = biological target: bovine intestinal alkaline phosphatase (Bos taurus (Bovine), UniProt P19111); test: BiALP: conversion by bovine intestinal alkaline phosphatase; assay type: in vitro ADME; details: 2 μM substrate, 100 ng/mL iALP, Tris pH 7.8, 37° C., 60 minutes; for [Intermediate A] or [Amprenavir]: parent formed
Outline: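 LC-MS (positive mode) quantified analyte/internal-standard peak area ratios, referenced to 2 μM parent product. This followed a 60 min, 37° C reaction of 2 μM substrate in Tris buffer pH 7.8 (1 mM MgCl2, 1 mM ZnCl2) containing 100 ng/mL iALP or buffer alone, run in triplicate.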

[2] = Intestinal S9 Assay (human GI S9); assay type: in vitro ADME; details: 1.0 mg/mL S9 protein; for half-life at 2 μM: human, TRIS pH 7.4, read-out: Human GI S9 T½
Outline: (§1)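 Pooled dog or human intestinal S9 at 1.0 mg/mL protein in TRIS buffer pH 7.4 with ZnCl2 and MgCl2; compound at 2 μM, sampled 0–120 min and quenched. Remaining parent by LC-MS peak area ratio; half-life from first-order exponential decline fit.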

[3] = Intestinal S9 Assay (dog GI S9); assay type: in vitro ADME; details: 1.0 mg/mL S9 protein; for Dog GI S9 [Intermediate A] / Dog GI S9 [Intermediate A] %: 2 μM, TRIS pH 7.4; for half-life at 2 μM: dog, TRIS pH 7.4, read-out: Dog GI S9 T½
Outline: as §1

PBS Stability Assay = assay type: physicochemical; details: phosphate buffered saline pH 7.4; for half-life at 2 μM: buffer, pH 7.4, 2 μM, read-out: PBS T½; for PBS T½: 2 μM
Outline: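 Half-life derives from first-order exponential decline of % compound remaining, quantified by LC-MS analyte/internal-standard peak-area ratio. Compound (2 μM final) sat in pH 7.4 phosphate-buffered saline, with aliquots quenched into acidified acetonitrile containing labetalol from 0 to 120 min.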

Solubility in FaSSIF = details: 23 °C, pH 6.5, fassif, thermodynamic from solid
Outline: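 Concentration measured by HPLC-UV after solid compound was dosed at 5 mg/mL into pH 6.5 fasted-state simulated intestinal fluid containing taurocholate and lecithin (4:1 molar) and vortexed.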

Chain of bovine intestinal alkaline phosphatase (P19111 20-506): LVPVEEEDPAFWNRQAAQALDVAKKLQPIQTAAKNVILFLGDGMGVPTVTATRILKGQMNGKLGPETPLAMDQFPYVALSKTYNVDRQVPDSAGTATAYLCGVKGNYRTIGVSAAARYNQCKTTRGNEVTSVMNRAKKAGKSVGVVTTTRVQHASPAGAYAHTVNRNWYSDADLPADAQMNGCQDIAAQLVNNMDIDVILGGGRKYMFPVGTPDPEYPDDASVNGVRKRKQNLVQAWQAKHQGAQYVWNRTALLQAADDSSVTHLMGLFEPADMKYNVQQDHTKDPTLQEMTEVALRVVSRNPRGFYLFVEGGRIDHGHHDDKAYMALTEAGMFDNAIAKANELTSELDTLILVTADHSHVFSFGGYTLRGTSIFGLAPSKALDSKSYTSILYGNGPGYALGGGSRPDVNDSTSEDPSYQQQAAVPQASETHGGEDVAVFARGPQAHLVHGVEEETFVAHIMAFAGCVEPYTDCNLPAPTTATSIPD

| Compound | EC50 (HIV-1 IIIB strain) [nM] | [Compound] [1] [nM] | biALP Intermediate A or [Amprenavir] (% of total) [1] | [Intermediate A] or [Amprenavir] [1] [nM] | Human GI S9 [Intermediate A] ([2]; 2 μM, TRIS pH 7.4) [nM] | Human GI S9 [Intermediate A] % ([2]; 2 μM, TRIS pH 7.4) [%] | half-life at 2 μM [2] [h] | Dog GI S9 [Intermediate A] [3] [nM] | Dog GI S9 [Intermediate A] % [3] [%] | half-life at 2 μM [3] [h] | half-life at 2 μM (PBS Stability Assay) [h] | solubility at 2 h (Solubility in FaSSIF) [µg/mL] | PBS T½ (PBS Stability Assay) [h] | Human GI S9 T½ ([2]; 2 μM, TRIS pH 7.4) [h] |
| --- | --- | --- | --- | --- | --- | --- | --- | --- | --- | --- | --- | --- | --- | --- |
| COC(=O)N[C@H](C(=O)N[C@@H](Cc1ccc(C#Cc2cnc(N3CC4CCC(C3)N4C3COC3)nc2)cc1)[C@H](CN(Cc1c(F)cc(-c2ccn(C(F)F)n2)cc1F)NC(=O)[C@@H](NC(=O)OC)C(C)(C)C(F)(F)F)OC(=O)CC(C)(C)c1c(CC(=O)N2C[C@@H](C(=O)O)C[C@H]2C(=O)O)cc(C)cc1OP(=O)(O)O)C(C)(C)C(F)(F)F [Example 10] | 418 | 1868.8 | 4.9 % of total | 95.5 | 86.8 | 7.3 | 9.22 | 228.1 | 18.4 | 4.24 | 9.92 | 3120 (≈ 1920 µM) |  |  |
| COC(=O)N[C@H](C(=O)N[C@@H](Cc1ccc(C#Cc2cnc(N3CC4CCC(C3)N4C3COC3)nc2)cc1)[C@H](CN(Cc1c(F)cc(-c2ccn(C(F)F)n2)cc1F)NC(=O)[C@@H](NC(=O)OC)C(C)(C)C(F)(F)F)OC(=O)CC(C)(C)c1c(CC(=O)Nc2cccc(C(=O)O)c2)cc(C)cc1OP(=O)(O)O)C(C)(C)C(F)(F)F [Example 14] | 178 | 2276.6 | 2.2 % of total | 50.3 | 58.5 | 3.9 | 10.1 | 210.8 | 13.8 | 6.69 | 5.58 | < 1000 |  |  |
| COC(=O)N[C@H](C(=O)N[C@@H](Cc1ccc(C#Cc2ccc(N3CC4CCC(C3)N4C3COC3)nc2)cc1)[C@H](CN(Cc1c(F)cc(-c2ccn(C(F)F)n2)cc1F)NC(=O)[C@@H](NC(=O)OC)C(C)(C)C(F)(F)F)OC(=O)CC(C)(C)c1c(CC(=O)Nc2cccc(C(=O)OO)c2)cc(C)cc1CP(=O)(O)O)C(C)(C)C(F)(F)F [Example 15] | 162 | 2690.4 |  |  |  |  | 8.95 |  |  | 3.95 | 4.8 | < 1000 |  |  |
| COC(=O)N[C@H](C(=O)N[C@@H](Cc1ccc(C#Cc2cnc(N3CC4CCC(C3)N4C3COC3)nc2)cc1)[C@H](CN(Cc1c(F)cc(-c2ccn(C(F)F)n2)cc1F)NC(=O)[C@@H](NC(=O)OC)C(C)(C)C(F)(F)F)OC(=O)CC(C)(C)c1c(CC(=O)NCCS(=O)(=O)O)cc(C)cc1OP(=O)(O)O)C(C)(C)C(F)(F)F [Example 24] | 130 | 1717.9 |  |  |  |  | 3.78 |  |  | 2.24 |  | 4660 (≈ 2920 µM) | 13.2 |  |
| COC(=O)N[C@H](C(=O)N[C@@H](Cc1ccc(C#Cc2cnc(N3CC4CCC(C3)N4C3COC3)nc2)cc1)[C@H](CN(Cc1c(F)cc(-c2ccn(C(F)F)n2)cc1F)NC(=O)[C@@H](NC(=O)OC)C(C)(C)C(F)(F)F)OC(=O)CC(C)(C)c1c(CC(=O)NCC(=O)NS(C)(=O)=O)cc(C)cc1OP(=O)(O)O)C(C)(C)C(F)(F)F [Example 27, (5S,10S,11S,14S)-8-(4-(1-(difluoromethyl)-1H-pyrazol-3-yl)-2,6-difluorobenzyl)-11-(4-((2-(8-(oxetan-3-yl)-3,8-diazabicyclo[3.2.1]octan-3-yl)pyrimidin-5-yl)ethynyl)benzyl)-3,6,13,16-tetraoxo-5,14-bis(1,1,1-trifluoro-2-methylpropan-2-yl)-2,17-dioxa-4,7,8,12,15-pentaazaoctadecan-10-yl 3-methyl-3-(4-methyl-2-(2-((2-(methylsulfonamido)-2-oxoethyl)amino)-2-oxoethyl)-6-(phosphonooxy)phenyl)butanoate] | 173 | 2082.4 |  |  |  |  | 2.46 |  |  | 1.82 | 6.41 | 4420 (≈ 2730 µM) |  |  |
| COC(=O)N[C@H](C(=O)N[C@@H](Cc1ccc(C#Cc2cnc(N3CC4CCC(C3)N4C3COC3)nc2)cc1)[C@H](CN(Cc1c(F)cc(-c2ccn(C(F)F)n2)cc1F)NC(=O)[C@@H](NC(=O)OC)C(C)(C)C(F)(F)F)OC(=O)CC(C)(C)c1c(CC(=O)NC/C(N)=N/O)cc(C)cc1OP(=O)(O)O)C(C)(C)C(F)(F)F [Example 28, (5S,10S,11S,14S)-8-(4-(1-(difluoromethyl)-1H-pyrazol-3-yl)-2,6-difluorobenzyl)-11-(4-((2-(8-(oxetan-3-yl)-3,8-diazabicyclo[3.2.1]octan-3-yl)pyrimidin-5-yl)ethynyl)benzyl)-3,6,13,16-tetraoxo-5,14-bis(1,1,1-trifluoro-2-methylpropan-2-yl)-2,17-dioxa-4,7,8,12,15-pentaazaoctadecan-10-yl 3-(2-(2-(((Z)-2-amino-2-(hydroxyimino)ethyl)amino)-2-oxoethyl)-4-methyl-6-(phosphonooxy)phenyl)-3-methylbutanoate] | 307 | 2478.7 |  |  |  |  |  |  |  | 11.4 |  | 15 (≈ 9.64 µM) | 13.2 | 13.2 |
| COC(=O)N[C@H](C(=O)N[C@@H](Cc1ccc(C#Cc2cnc(N3CC4CCC(C3)N4C3COC3)nc2)cc1)[C@H](CN(Cc1c(F)cc(-c2ccn(C(F)F)n2)cc1F)NC(=O)[C@@H](NC(=O)OC)C(C)(C)C(F)(F)F)OC(=O)CC(C)(C)c1c(CC(=O)N[C@@]2(C(=O)O)CCOC2)cc(C)cc1OP(=O)(O)O)C(C)(C)C(F)(F)F [Example 29] | 213 | 1878.7 |  |  |  |  | 3.31 |  |  | 0.822 | 8.62 | 4970 (≈ 3110 µM) |  |  |
| COC(=O)N[C@H](C(=O)N[C@@H](Cc1ccc(C#Cc2cnc(N3CC4CCC(C3)N4C3COC3)nc2)cc1)[C@H](CN(Cc1c(F)cc(-c2ccn(C(F)F)n2)cc1F)NC(=O)[C@@H](NC(=O)OC)C(C)(C)C(F)(F)F)OC(=O)CC(C)(C)c1c(CC(=O)N[C@]2(C(=O)O)CCOC2)cc(C)cc1OP(=O)(O)O)C(C)(C)C(F)(F)F [Example 30] | 197 | 1521.8 |  |  |  |  | 4.11 |  |  | 1.17 | 8.56 | 5370 (≈ 3360 µM) |  |  |
| COC(=O)N[C@H](C(=O)N[C@@H](Cc1ccc(C#Cc2cnc(N3CC4CCC(C3)N4C3COC3)nc2)cc1)[C@H](CN(Cc1c(F)cc(-c2ccn(C(F)F)n2)cc1F)NC(=O)[C@@H](NC(=O)OC)C(C)(C)C(F)(F)F)OC(=O)CC(C)(C)c1c(CC(=O)N[C@@H](CCS(=O)(=O)O)C(=O)O)cc(C)cc1OP(=O)(O)O)C(C)(C)C(F)(F)F [Example 33] | 65.7 | 1487.1 |  |  |  |  | 3.72 |  |  | 1.51 | 5.71 | 4240 (≈ 2570 µM) |  |  |
| COC(=O)N[C@H](C(=O)N[C@@H](Cc1ccc(C#Cc2cnc(N3CC4CCC(C3)N4C3COC3)nc2)cc1)[C@H](CN(Cc1c(F)cc(-c2ccn(C(F)F)n2)cc1F)NC(=O)[C@@H](NC(=O)OC)C(C)(C)C(F)(F)F)OC(=O)CC(C)(C)c1c(CC(=O)NC(CCP(=O)(O)O)C(=O)O)cc(C)cc1OP(=O)(O)O)C(C)(C)C(F)(F)F (stereo partly drawn) [Example 35] | 65.7 | 2145.2 |  |  |  |  | 3.21 |  |  | 0.235 | 3.27 | 3560 (≈ 2160 µM) |  |  |
| COC(=O)N[C@H](C(=O)N[C@@H](Cc1ccc(C#Cc2cnc(N3CC4CCC(C3)N4C3COC3)nc2)cc1)[C@H](CN(Cc1c(F)cc(-c2ccn(C(F)F)n2)cc1F)NC(=O)[C@@H](NC(=O)OC)C(C)(C)C(F)(F)F)OC(=O)CC(C)(C)c1c(CC(=O)NC23CC(C(=O)O)(C2)C3)cc(C)cc1OP(=O)(O)O)C(C)(C)C(F)(F)F [Example 38] | 305 | 1920.9 |  |  |  |  | 7.82 |  |  | 6.52 | 5.16 | 3500 (≈ 2200 µM) |  |  |
| COC(=O)N[C@H](C(=O)N[C@@H](Cc1ccc(C#Cc2cnc(N3CC4CCC(C3)N4C3COC3)nc2)cc1)[C@H](CN(Cc1c(F)cc(-c2ccn(C(F)F)n2)cc1F)NC(=O)[C@@H](NC(=O)OC)C(C)(C)C(F)(F)F)OC(=O)CC(C)(C)c1c(CC(=O)N[C@@H](Cc2ccc(C(=O)O)cc2)C(=O)O)cc(C)cc1OP(=O)(O)O)C(C)(C)C(F)(F)F [Example 45] | 209 | 1787.4 |  |  |  |  | 6.23 |  |  | 0.993 | 4.74 | 4300 (≈ 2570 µM) |  |  |
